Reference: PubChem BioAssay (NCI)
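Test compounds were applied to cells in 96-well plates for 48 hours at 5 doses. TGI marks complete inhibition of growth.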

Key:
Test in all cases: NCI tumour cell line growth inhibition, 48 h
KM20L2 colon = system: KM20L2 colon
SK-MEL-2 melanoma = system: SK-MEL-2 melanoma
K-562 leukemia = system: K-562 leukemia
UO-31 renal = system: UO-31 renal
COLO 205 colon = system: COLO 205 colon
SF-268 CNS = system: SF-268 CNS
HOP-92 NSCLC = system: HOP-92 NSCLC
MOLT-4 leukemia = system: MOLT-4 leukemia
A549 NSCLC = system: A549 NSCLC
RPMI-8226 leukemia = system: RPMI-8226 leukemia
OVCAR-5 ovarian = system: OVCAR-5 ovarian
HCT-116 colon = system: HCT-116 colon
CCRF-CEM leukemia = system: CCRF-CEM leukemia
IGROV1 ovarian = system: IGROV1 ovarian
SN12K1 renal = system: SN12K1 renal
NCI-H460 lung = system: NCI-H460 lung
NCI/ADR-RES ovarian = system: NCI/ADR-RES ovarian
SNB-75 CNS = system: SNB-75 CNS
HT29 colon = system: HT29 colon
P388/ADR leukemia = system: P388/ADR leukemia
OVCAR-4 ovarian = system: OVCAR-4 ovarian
EKVX NSCLC = system: EKVX NSCLC
RXF 393 renal = system: RXF 393 renal
NCI-H226 lung = system: NCI-H226 lung
SW-620 colon = system: SW-620 colon
LOX IMVI melanoma = system: LOX IMVI melanoma
MCF7 breast = system: MCF7 breast
SK-MEL-28 melanoma = system: SK-MEL-28 melanoma
HCC-2998 colon = system: HCC-2998 colon
P388 leukemia = system: P388 leukemia
CAKI-1 renal = system: CAKI-1 renal
HOP-62 NSCLC = system: HOP-62 NSCLC
A498 renal = system: A498 renal
DLD-1 colon = system: DLD-1 colon
OVCAR-8 ovarian = system: OVCAR-8 ovarian
SNB-78 CNS = system: SNB-78 CNS
XF 498 CNS = system: XF 498 CNS
DMS 114 small cell lung = system: DMS 114 small cell lung
OVCAR-3 ovarian = system: OVCAR-3 ovarian
HCT-15 colon = system: HCT-15 colon
U251 CNS = system: U251 CNS
NCI-H522 lung = system: NCI-H522 lung
SF-539 CNS = system: SF-539 CNS
SK-OV-3 ovarian = system: SK-OV-3 ovarian
SF-295 CNS = system: SF-295 CNS
MALME-3M melanoma = system: MALME-3M melanoma
SN12C renal = system: SN12C renal
SK-MEL-5 melanoma = system: SK-MEL-5 melanoma
UACC-62 melanoma = system: UACC-62 melanoma
M19-MEL melanoma = system: M19-MEL melanoma
HOP-18 NSCLC = system: HOP-18 NSCLC
UACC-257 melanoma = system: UACC-257 melanoma
KM12 colon = system: KM12 colon
SNB-19 CNS = system: SNB-19 CNS
DMS 273 small cell lung = system: DMS 273 small cell lung
NCI-H23 lung = system: NCI-H23 lung
786-0 renal = system: 786-0 renal
ACHN renal = system: ACHN renal
RXF-631 renal = system: RXF-631 renal
LXFL 529 NSCLC = system: LXFL 529 NSCLC
HL-60(TB) leukemia = system: HL-60(TB) leukemia
SR leukemia = system: SR leukemia
M14 melanoma = system: M14 melanoma
TK-10 renal = system: TK-10 renal

SMILES: CN(C)N=Nc1ccc([N+](=O)[O-])cc1C(N)=O
- TGI (KM20L2 colon): > 100 µM
- TGI (SK-MEL-2 melanoma): > 100 µM
- TGI (K-562 leukemia): > 100 µM
- TGI (UO-31 renal): > 100 µM
- TGI (COLO 205 colon): > 100 µM
- TGI (SF-268 CNS): > 100 µM
- TGI (HOP-92 NSCLC): > 100 µM
- TGI (MOLT-4 leukemia): > 100 µM
- TGI (A549 NSCLC): > 100 µM
- TGI (RPMI-8226 leukemia): > 100 µM
- TGI (OVCAR-5 ovarian): > 100 µM
- TGI (HCT-116 colon): > 100 µM
- TGI (CCRF-CEM leukemia): > 100 µM
- TGI (IGROV1 ovarian): > 100 µM
- TGI (SN12K1 renal): > 100 µM
- TGI (NCI-H460 lung): > 100 µM
- TGI (NCI/ADR-RES ovarian): > 100 µM
- TGI (SNB-75 CNS): > 100 µM
- TGI (HT29 colon): > 100 µM
- TGI (P388/ADR leukemia): > 100 µM
- TGI (OVCAR-4 ovarian): > 100 µM
- TGI (EKVX NSCLC): > 100 µM
- TGI (RXF 393 renal): > 100 µM
- TGI (NCI-H226 lung): > 100 µM
- TGI (SW-620 colon): > 100 µM
- TGI (LOX IMVI melanoma): > 100 µM
- TGI (MCF7 breast): > 100 µM
- TGI (SK-MEL-28 melanoma): > 100 µM
- TGI (HCC-2998 colon): > 100 µM
- TGI (P388 leukemia): > 100 µM
- TGI (CAKI-1 renal): > 100 µM
- TGI (HOP-62 NSCLC): > 100 µM
- TGI (A498 renal): > 100 µM
- TGI (DLD-1 colon): > 100 µM
- TGI (OVCAR-8 ovarian): > 100 µM
- TGI (SNB-78 CNS): > 100 µM
- TGI (XF 498 CNS): > 100 µM
- TGI (DMS 114 small cell lung): > 100 µM
- TGI (OVCAR-3 ovarian): > 100 µM
- TGI (HCT-15 colon): > 100 µM
- TGI (U251 CNS): > 100 µM
- TGI (NCI-H522 lung): > 100 µM
- TGI (SF-539 CNS): > 100 µM
- TGI (SK-OV-3 ovarian): > 100 µM
- TGI (SF-295 CNS): > 100 µM
- TGI (MALME-3M melanoma): > 100 µM
- TGI (SN12C renal): > 100 µM
- TGI (SK-MEL-5 melanoma): > 100 µM
- TGI (UACC-62 melanoma): > 100 µM
- TGI (M19-MEL melanoma): > 100 µM
- TGI (HOP-18 NSCLC): > 100 µM
- TGI (UACC-257 melanoma): > 100 µM
- TGI (KM12 colon): > 100 µM
- TGI (SNB-19 CNS): > 100 µM
- TGI (DMS 273 small cell lung): > 100 µM
- TGI (NCI-H23 lung): > 100 µM

SMILES: O=C(CC(O)(c1ccccc1)c1ccc(Cl)cc1)NC(=O)c1ccccc1O (stereo not drawn)
- TGI (KM20L2 colon): 34.3 µM
- TGI (SK-MEL-2 melanoma): 22.1 µM
- TGI (K-562 leukemia): > 100 µM
- TGI (UO-31 renal): 6.75 µM
- TGI (786-0 renal): 44.9 µM
- TGI (COLO 205 colon): 27.5 µM
- TGI (ACHN renal): 99 µM
- TGI (SF-268 CNS): > 100 µM
- TGI (RXF-631 renal): 74.8 µM
- TGI (HOP-92 NSCLC): 6.59 µM
- TGI (MOLT-4 leukemia): 46.7 µM
- TGI (A549 NSCLC): > 100 µM
- TGI (OVCAR-5 ovarian): 8.95 µM
- TGI (HCT-116 colon): 52.6 µM
- TGI (LXFL 529 NSCLC): 56.3 µM
- TGI (CCRF-CEM leukemia): 43.2 µM
- TGI (IGROV1 ovarian): > 100 µM
- TGI (NCI-H460 lung): 26.7 µM
- TGI (SNB-75 CNS): 40.8 µM
- TGI (HT29 colon): 53 µM
- TGI (OVCAR-4 ovarian): > 100 µM
- TGI (EKVX NSCLC): 68.2 µM
- TGI (RXF 393 renal): 49 µM
- TGI (NCI-H226 lung): 29.8 µM
- TGI (SW-620 colon): > 100 µM
- TGI (LOX IMVI melanoma): 23.3 µM
- TGI (HL-60(TB) leukemia): 25 µM
- TGI (SK-MEL-28 melanoma): > 100 µM
- TGI (HCC-2998 colon): 21.1 µM
- TGI (CAKI-1 renal): 23.2 µM
- TGI (HOP-62 NSCLC): 25.6 µM
- TGI (A498 renal): 8.62 µM
- TGI (DLD-1 colon): > 100 µM
- TGI (OVCAR-8 ovarian): 61.3 µM
- TGI (SNB-78 CNS): > 100 µM
- TGI (DMS 114 small cell lung): 31.5 µM
- TGI (OVCAR-3 ovarian): 27.4 µM
- TGI (SR leukemia): 39.6 µM
- TGI (HCT-15 colon): 37.5 µM
- TGI (U251 CNS): 26.5 µM
- TGI (NCI-H522 lung): 14.9 µM
- TGI (SF-539 CNS): 46.8 µM
- TGI (SK-OV-3 ovarian): 55.4 µM
- TGI (SF-295 CNS): 26.3 µM
- TGI (MALME-3M melanoma): 70.6 µM
- TGI (SN12C renal): 32 µM
- TGI (SK-MEL-5 melanoma): 19.1 µM
- TGI (UACC-62 melanoma): 21.3 µM
- TGI (M19-MEL melanoma): 82.8 µM
- TGI (M14 melanoma): 27.9 µM
- TGI (HOP-18 NSCLC): 8.97 µM
- TGI (UACC-257 melanoma): 32.6 µM
- TGI (TK-10 renal): 41.2 µM
- TGI (KM12 colon): 21.9 µM
- TGI (SNB-19 CNS): > 100 µM
- TGI (DMS 273 small cell lung): 39 µM
- TGI (NCI-H23 lung): 26.9 µM
